# Test results as given in patent US20260284127A1, “COMPOSITIONS OF […] CORDYCEPS AND METHODS OF DELIVERY FOR THE TREATMENT OF ACUTE AND LONG COVID” (priority 2023, published 2026).
# Key:
# [1] = test system: CaCo2 cells; format: in vitro ADME; conditions: 200 μg/ml cordycepin apical, pure solution
# Experimental: Methods: Transepithelial wells with a 1 μm pore size and 0.3 cm^2 surface area were preincubated with DMEM-F12 media with 10% FBS and 10 μg/ml penicillin/streptomycin at 37° C. in 5% CO2 for one hour. CaCo2 cells in the same media were seeded at a density of 50,000 cells. The cells were maintained under these conditions throughout the experiment. Media was changed every 2 to 3 days, and TEER values were monitored from day 10 onward. At day 18, cells with TEER values exceeding 200 ohm/cm^2 were incubated in PAB buffer for 20 minutes: 1 ml in basolateral and 0.5 ml in apical side. Samples of 200 μg/ml cordycepin, and 200 μg/ml cordycepin in a standardized cordyceps extract were prepared in PAB buffer, which was exchanged for the apical buffer. Fifty microlitre samples of both apical and basolateral compartments were acquired initially and at 1 hour intervals. The samples were immediately added to 450 μl of methanol and quantified on an Agilent 4910 LC-mass spectrometer. Cordycepin was measured by direct injection in SMS mode and integrated values were compared against standard curves prepared in the same manner as test samples.
# [2] = cordycepin after one oral dose of HAD-B1 formula; cited from earlier work
# [3] = test system: CaCo2; conditions: human, Caco-2; cited from earlier work
# [4] = cited from earlier work
# [5] = given as a pure compound; cited from earlier work
smiles,measurement,setting,value
"Nc1ncnc2c1ncn2[C@@H]1O[C@H](CO)C[C@H]1O [cordycepin, 3′-deoxyadenosine]",cordycepin measured on the basal side,[1],no detectable
same,half-life,[2],8.62 h
same,time to maximal concentration,[2],1.5 h
same,CaCo2 permeability,[3],1.1*10^−7 cm/s
same,experimental solubility in water,[4],1 mg/mL
same,oral bioavailability,[5],extremely low
